# Measured values from PubChem BioAssay AID463204 (Broad Institute, 2010).
# Activity calls are given as the source filed them.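 Rule for the calls: active = AC50 no more than ten times the top concentration tested, that is within one log above it; inconclusive = flat curve fit with activity between 30% and 70%, or invalid poor fit; inactive = AC50 beyond ten times the top tested dose.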
# System: S. cerevisiae Mot1-301 ts growth rescue, BacTiter-Glo ATP luminescence
# Assay: restored Mot1-301 yeast growth at 38.5C – whole organism, S. cerevisiae, Mot1-301 ts mutant, luminescence, dose retest, SUMOylation pathway inhibitor project, confirmation (AID 463204);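 note: growth at restrictive 38.5 degrees C of Mot1-301 OY566 strain; actives raise luminescence by restoring growth of the ts mutant at high temperature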
row,Structure (SMILES),AC50
1,COc1c(C)cc(S(=O)(=O)NC2CC(C)(C)NC(C)(C)C2)c(C)c1C,> 42 µM (inactive)
2,CN(C)c1ccc(/C=C/c2cccc[n+]2[O-])cc1,> 42 µM (inactive)
3,CCCCCCCCCCOC(=O)Cn1c(COc2ccccc2OC)[n+](C)c2ccccc21,13.4 µM
4,O=C(COc1ccc(F)cc1Cl)N(Cc1nnc(-c2ccccc2Cl)o1)C1CC1,> 42 µM (inactive)
5,COc1ccc(OC)c2c(N)c(C#N)c(C(F)(F)C(F)(F)F)nc12,> 42 µM (inactive)
6,COCC(=O)n1nc(NCc2ccc(OC)cc2)nc1NCc1ccc(OC)cc1,> 42 µM (inactive)
7,CCOC(=O)c1ccccc1NC(=O)CSc1ccc(-c2ccccn2)nn1,> 42 µM (inactive)
8,COc1cccc(CN(C)CC2CCCN(CCc3ccc(Cl)cc3)C2)c1OC (stereo not given),> 42 µM (inactive)
9,CC(=O)Nc1ccc(S(=O)(=O)N(C)CC(=O)Nc2ccc(Br)cc2F)cc1,> 42 µM (inactive)
10,NC(=O)NC(=O)COC(=O)/C=C/c1cccs1,> 42 µM (inactive)
11,Cc1nn(C)c(C)c1/C=N/NC(=O)C(C)(C)Oc1ccc(Cl)cc1,> 42 µM (inactive)
12,CN(C)CC/C=C1\c2ccccc2Sc2ccc(Cl)cc21,> 42 µM (inactive)
13,CN(C)CCCN(Cc1ccccc1)C(=S)Nc1ccc(F)c(Cl)c1,> 42 µM (inactive)
14,CC(C)Cc1cc(CN2CCC(CO)(Cc3ccccc3)CC2)[nH]n1,> 42 µM (inactive)
15,COc1ccccc1CC(=O)N1CCOCC1,> 42 µM (inactive)
16,Cc1cc2ncc(C(=O)N=CN(C)C)cn2n1,> 42 µM (inactive)
17,COC(=O)C1CN(C(=O)C(C)Oc2ccc(F)cc2)c2ccccc2O1 (stereo not given),> 42 µM (inactive)
18,C=CCNC(=O)c1onc(CSc2cccc(C)c2)c1C(=O)O,> 42 µM (inactive)
19,CC(C)(C)c1ccc(C(=O)NCCC(=O)N2CCN(c3ncccn3)CC2)cc1,> 42 µM (inactive)
20,O=C(COc1ccc([N+](=O)[O-])cc1)Nc1ccc(C(=O)NCc2cccnc2)cc1,> 42 µM (inactive)
21,O=C(CN1C(=O)NC2(CCCC2)C1=O)Nc1nc2ccccc2[nH]1,> 42 µM (inactive)
22,NN1C(=O)NC(c2ccccc2)(c2ccccc2)C1=O,> 42 µM (inactive)
23,CS(=O)(=O)N(CC(=O)N1CCN(c2ccccc2F)CC1)C1CCCCC1,> 42 µM (inactive)
24,Cc1sc2ncnc(N3CCC(C(=O)NNC(=O)COc4ccccc4F)CC3)c2c1C,> 42 µM (inactive)
25,COc1cc(NC(=O)CN2CCN(CC(=O)Nc3ccccc3OC)CC2)cc(OC)c1,> 42 µM (inactive)

row,Structure (SMILES),AC50
1,COc1ccccc1-n1c(O)c(/C=C2\C=Nc3ccccc32)c(=O)[nH]c1=O,> 42 µM (inactive)
2,COc1ccc(C(=O)N/C(=C\c2cc(OC)c(OC)cc2[N+](=O)[O-])C(=O)NCCO)cc1,> 42 µM (inactive)
3,Cc1ccc(NC(=O)Cn2nnc(C(=O)NCc3ccc4c(c3)OCO4)c2N)cc1,> 42 µM (inactive)
4,COC(=O)[C@@]12CCCCN1[C@H](c1ccc(-c3cccc(Cl)c3)c(OC)c1)[C@H]1C(=O)N(C)C(=O)[C@H]12,> 42 µM (inactive)
5,CCOc1ccc(Br)cc1S(=O)(=O)N1CCC(C(N)=O)CC1,> 42 µM (inactive)
6,O=C(CCSc1ccccc1)NNC(=O)c1ccccc1F,> 42 µM (inactive)
7,O=C(Nc1ccc([N+](=O)[O-])cn1)C1CC1,> 42 µM (inactive)
8,CCCS(=O)(=O)N1CCC(C(=O)N2CCc3ccccc3C2)CC1,> 42 µM (inactive)
9,CCc1ccc2c(c1)C(c1ccc([N+](=O)[O-])cc1)=NNC(c1ccc(C)cc1)=N2,> 42 µM (inactive)
10,S=C(NCCc1c[nH]c2ccccc12)NC1CC1,> 42 µM (inactive)
11,CN(C/C=C/c1ccccc1[N+](=O)[O-])Cc1ccccc1,> 42 µM (inactive)
12,COC(=O)c1ccc(CN2CCN(C3CCCCC3)C(CCO)C2)cc1 (stereo not given),> 42 µM (inactive)
13,CCn1c(C)c(C(C)=O)c(N2CCN(c3ccc(F)cc3)CC2)nc1=S,> 42 µM (inactive)
14,CN(C)C1(c2nnnn2-c2ccc(Cl)cc2)CCCCC1,27.9 µM
15,Cc1cccc(OCC(O)CN2C(C)(C)CC(O)CC2(C)C)c1 (stereo not given),> 42 µM (inactive)
16,CC(C)CN(C(=O)COC(=O)c1ccc2c(c1)OCO2)c1c(N)n(Cc2ccccc2)c(=O)[nH]c1=O,> 42 µM (inactive)
17,O=C1CCC(C(=O)N2CCN(c3ccccc3)CC2)CN1CC1CCCCC1 (stereo not given),> 42 µM (inactive)
18,CN(c1ccccc1)S(=O)(=O)c1ccc(C(=O)NCC2CCCO2)cc1 (stereo not given),> 21 µM (inactive)
19,Cn1c(-c2ccc3c(c2)OCO3)cnc1NC(=O)CCC(=O)NCCc1ccccc1,> 42 µM (inactive)
20,Cc1nc(NC(=O)CSc2nc(N)cc(N)n2)sc1C,> 42 µM (inactive)
21,NC(=O)CN1CCOCCN(CC(N)=O)CCOCC1,> 42 µM (inactive)
22,COc1ccc(CN2CCNC(=O)C2CC(=O)NCc2cn3ccc(C)cc3n2)c(OC)c1 (stereo not given),> 42 µM (inactive)
23,O=C(NCC(=O)N(c1ccccc1)C(C(=O)NCC1CCCO1)c1ccccc1)c1cccs1 (stereo not given),> 42 µM (inactive)
24,O=C(OCc1nc2ccsc2c(=O)[nH]1)c1ccco1,> 42 µM (inactive)
25,O=C(CCC(=O)OC(C(=O)c1ccccc1)c1ccccc1)Nc1ccccc1 (stereo not given),> 21 µM (inactive)

row,Structure (SMILES),AC50
1,CN(CC(=O)Nc1cccc(F)c1)CC(=O)Nc1cccc(S(N)(=O)=O)c1,> 110 µM (inactive)
2,CCN(CC)CCCn1c(=S)[nH]c2ccc(Cl)cc2c1=O,> 42 µM (inactive)
3,CC(C)C(CC(=O)NCc1ccco1)c1ccco1 (stereo not given),> 42 µM (inactive)
4,O=C(CCn1cnnn1)Nc1ccc(Cl)cc1Cl,> 42 µM (inactive)
5,COc1cccc(N2CCN(C3CCCC(C)C3)CC2)c1 (stereo not given),> 42 µM (inactive)
6,CCOc1ccc(NC(=O)CSc2nnc(Cc3csc(C)n3)o2)cc1,> 42 µM (inactive)
7,CC(NC(=O)OCc1ccccc1)C(=O)N1CC(O)CC1C(=O)O (stereo not given),> 21 µM (inactive)
8,Oc1c(Br)cc(Br)cc1C=Nc1cccnc1,4.88 µM
9,COc1ccccc1CNc1ncnc2nc[nH]c12,> 42 µM (inactive)
10,COc1ccc(C2=C(N)c3ccccc3C2=O)cc1,> 42 µM (inactive)
11,CCC(CC)NC(=O)c1oc2ccccc2c1COc1ccccc1,> 42 µM (inactive)
12,OC[C@@H](O)CCl,> 42 µM (inactive)
13,CC1CCCN(C(=O)Cc2ccc(F)cc2)C1 (stereo not given),> 42 µM (inactive)
14,COC(=O)c1ccc(Cn2cc(Cl)cn2)cc1,> 42 µM (inactive)
15,COc1ccc(OC)c(NC(=O)CNC(=O)Cn2ccc3ccccc3c2=O)c1,> 42 µM (inactive)
16,OCC1(Cc2cccc(Cl)c2)CCCN(Cc2ccc(F)c(F)c2)C1 (stereo not given),> 42 µM (inactive)
17,COc1ccc(CN(CC(=O)NCC2CCCO2)C(=O)CCC(=O)Nc2cc(C)on2)cc1 (stereo not given),> 42 µM (inactive)
18,COCCNC(=O)C(c1ccc(C)cc1)N(C(=O)CCC(=O)Nc1ccccn1)c1cccc(C)c1 (stereo not given),> 42 µM (inactive)
19,CN(C)C(=O)CCN1CCOCC1,> 42 µM (inactive)
20,O=C(O)COc1ccc(Br)cc1/C=N\Nc1ccccn1,> 42 µM (inactive)
21,CCCCn1c(/N=C/c2ccc3c(c2)OCO3)nc2ccccc21,> 42 µM (inactive)
22,CCCCn1c(N)c(N(CC(C)C)C(=O)c2cc(-c3ccc(F)cc3)nc3ccccc23)c(=O)[nH]c1=O,> 42 µM (inactive)
23,CCC(=O)N1CCc2cc(S(=O)(=O)CCC(=O)Nc3cccc(C)n3)ccc21,> 42 µM (inactive)
24,COc1ccc(CN(C)S(=O)(=O)c2nnc(NC(=O)c3ccc(C)cc3)s2)cc1OC,> 42 µM (inactive)
25,CC(C)C(NC(=S)Nc1ccccc1)C(=O)O (stereo not given),> 42 µM (inactive)

row,Structure (SMILES),AC50
1,Cc1[nH]nc2c1C(c1cccs1)C1=C(CC(C)(C)CC1=O)N2 (stereo not given),> 42 µM (inactive)
2,Cc1nn(-c2ccccc2)c(N)c1N=Nc1cccc(S(=O)(=O)N2CCOCC2)c1,> 42 µM (inactive)
3,O=C(c1ccccc1)C(CN1CCCC1)c1ccccc1 (stereo not given),4.34 µM
4,Cc1ccnc(NC(=O)c2ccc(Br)s2)c1,> 42 µM (inactive)
5,Cc1ccc(NC(=O)C(=O)NCC2CCCN2S(=O)(=O)c2cccs2)cc1 (stereo not given),> 42 µM (inactive)
6,COc1ccc(NC(=O)CCC(=O)Nc2nnc(C(F)(F)F)s2)c(OC)c1,> 42 µM (inactive)
7,CCCCc1n[nH]c(=S)n1Cc1ccc(C)cc1,> 42 µM (inactive)
8,COc1cc2cc(C)c3nnc(SCC(=O)Nc4cc(C)on4)n3c2cc1OC,> 42 µM (inactive)
9,CCOC(=O)C(C)(C)Sc1nc2c(cnn2-c2ccc(C)cc2)c(=O)[nH]1,> 42 µM (inactive)
10,O=C(Nc1ccncc1Cl)c1ccncc1,> 42 µM (inactive)
11,CC(=O)N/C(=C\c1ccccc1)C(=O)OCC(=O)c1ccccc1,> 42 µM (inactive)
12,Cc1ccc(-n2c(-c3ccco3)nc3c(cnn3-c3ccc(C)cc3)c2=O)cc1,> 42 µM (inactive)
13,O=S(=O)(Nn1c(O)c(C=C2N=c3ccccc3=N2)sc1=S)c1ccccc1,> 42 µM (inactive)
14,CCN(C(=O)Cn1nc(C)c([N+](=O)[O-])c1C)c1c(N)n(Cc2ccccc2)c(=O)[nH]c1=O,> 42 µM (inactive)
15,CCCCCCNc1c(C(=O)OCC)c(=O)[nH]c2ccccc12,> 42 µM (inactive)
16,CCOC(=O)N1CCN(C(=O)c2ccccc2-c2ccccc2)CC1,> 42 µM (inactive)
17,CCOc1cc(C(=S)N2CCOCC2)ccc1OC(=O)c1ccc(C)cc1,> 42 µM (inactive)
18,Cc1ccc(C(=O)O)cc1N=Cc1cc(Br)cc(Br)c1O,2.45 µM
19,CCCCNC(=O)C1C2C=CC3(CN(Cc4ccc(C)cc4)C(=O)C13)O2 (stereo not given),> 42 µM (inactive)
20,COc1ccc2c(c1)[C@H]1[C@H](CO2)[C@H](c2ccccc2)[C@]2(C)C(=O)Nc3ccc(C)cc3C(=O)N12,> 42 µM (inactive)
21,Cc1ccc(S(=O)(=O)NCC(C)n2cncn2)cc1 (stereo not given),> 42 µM (inactive)
22,CN(C)S(=O)(=O)c1cccc(NC(=O)COc2nc3ccccc3nc2N2CCOCC2)c1,> 42 µM (inactive)
23,CCN(CC)c1ccc(/C=N/NC(=O)OC(C)(C)C)cc1,> 42 µM (inactive)
24,CCOC(=O)N1CCN(c2nnnn2-c2ccccc2)CC1,> 42 µM (inactive)
25,CC(C)CCNC(=O)Nc1ccc2c(c1)N(C)C(=O)CS2,> 42 µM (inactive)
